The values that follow come from ChEMBL document CHEMBL3045960 (Pest Manag Sci, 2011).

In brackets after ≈: the same amount, converted by molar mass.

The test system of the assay is Fusarium graminearum. As to the kind of experiment: Fungicidal activity against Fusarium graminearum 2021 assessed as mycelial growth inhibition after 3 days. It is filed as functional, organism-based. The conditions noted are these: Fusarium graminearum, 2021, 72 h.
`CCCCNC(=O)n1c(NC(=O)OC)nc2ccccc21` [BENOMYL]: the concentration for a half-maximal effect (EC50) was 0.61 µg/mL (≈ 2.1 µM).
The same measure for `COC(=O)NC(=S)Nc1ccccc1NC(=S)NC(=O)OC` [THIOPHANATE METHYL]: 11 µg/mL (≈ 32.2 µM); for `c1ccc2[nH]c(-c3cscn3)nc2c1` [THIABENDAZOLE]: 1.13 µg/mL (≈ 5.61 µM).
